Experimental data: the supplement of paper PMC11208160

Assay: recombinant barcode read abundance after kanamycin selection (control-corrected) (log10(CPM+1)); higher = more efficient recombination; sequences stand for … in AGTGCAGAGAAAATCGGCCAGTTTTCTCTGCCTGCAGTCCGCATGCCGT…AGATTTATGCAGCGGACTGCCTTTCTCCCAAAGTGATAAACCGGACAGTATCATGGACCGGTTTTCCCGGTAATCCGTATTTGCAAGGTTGGTTTCACT; site = the 11-nt target
Procedure, shortened: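 In E. coli, a pooled library matched targets to IS621 bridge RNA target-binding loops and was introduced alongside a donor plasmid. Cells went onto chloramphenicol/ampicillin/kanamycin with 0.1 mM IPTG or onto chloramphenicol/ampicillin LB agar as control, in duplicate. Recombination efficiency, from recombinant-junction barcodes as counts per million, is averaged and control-corrected. It is reported as log10(CPM+1).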
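Further: IS621 recombinase and bridge RNA in Escherichia coli cells.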

Sequence	recombinant barcode read abundance (log10)
CTACAAGCTTGGGTTCTAACCTGTTGCCT (site CTGCAAGCTAG)	0.155
CTACAAGCTTGGGTTCTAACCTGTTGCCT (site CTTCAAGCTAG)	0.177
CTACAATCTTGGGTTCTAACCTGTTGCCT (site ATACAATCTAG)	0.0309
CTACAATCTTGGGTTCTAACCTGTTGCCT (site CTACAATCTAG)	0.979
CTACAATCTTGGGTTCTAACCTGTTGCCT (site GTACAATCTAG)	0.0211
CTACAATCTTGGGTTCTAACCTGTTGCCT (site TTACAATCTAG)	0.0283
CTACACACTTGGGTTCTAACCTGTTGCTC (site CTACACACTGA)	1.64
CTACACACTTGGGTTCTAACCTGTTGCTC (site CTACACACTTA)	0.0402
CTACAGACTTGGGTTCTAACCTGTTGCGA (site CTACAGACTAC)	0.0546
CTACAGACTTGGGTTCTAACCTGTTGCGA (site CTACAGACTCC)	1.04
CTACAGACTTGGGTTCTAACCTGTTGCGA (site CTACAGACTGC)	0.0716
CTACAGACTTGGGTTCTAACCTGTTGCGA (site CTACAGACTTC)	2.73
CTACAGACTTGGGTTCTAACCTGTTGCGC (site CTACAGACTAC)	0.253
CTACAGACTTGGGTTCTAACCTGTTGCGC (site CTACAGACTCC)	0.221
CTACAGACTTGGGTTCTAACCTGTTGCGC (site CTACAGACTGC)	1.21
CTACAGACTTGGGTTCTAACCTGTTGCGC (site CTACAGACTTC)	0.503
CTACAGACTTGGGTTCTAACCTGTTGCGG (site CTACAGACTAC)	0.088
CTACAGACTTGGGTTCTAACCTGTTGCGG (site CTACAGACTCC)	2.61
CTACAGACTTGGGTTCTAACCTGTTGCGG (site CTACAGACTGC)	0.141
CTACAGACTTGGGTTCTAACCTGTTGCGG (site CTACAGACTTC)	1.31
CTACAGACTTGGGTTCTAACCTGTTGCGT (site CTACAGACTAC)	1.81
CTACAGACTTGGGTTCTAACCTGTTGCGT (site CTACAGACTCC)	0.229

Sequence	recombinant barcode read abundance (log10)
CTACAGACTTGGGTTCTAACCTGTTGCGT (site CTACAGACTGC)	0.155
CTACAGACTTGGGTTCTAACCTGTTGCGT (site CTACAGACTTC)	0.238
CTACATTCTTGGGTTCTAACCTGTTGCGT (site CTAAATACTAC)	0.0752
CTACATTCTTGGGTTCTAACCTGTTGCGT (site CTACATTCTAC)	1.52
CTACGATCTTGGGTTCTAACCTGTTGCAC (site CTACGATCTGT)	0.737
CTACGATCTTGGGTTCTAACCTGTTGCAC (site CTACGCTCTGT)	0.162
CTACGATCTTGGGTTCTAACCTGTTGCAC (site CTACGGTCTGT)	0.375
CTACGATCTTGGGTTCTAACCTGTTGCAC (site CTACGTTCTGT)	0.365
CTACGCTCTTGGGTTCTAACCTGTTGCGA (site CTACGCTCTTC)	1.52
CTACGCTCTTGGGTTCTAACCTGTTGCGA (site CTAGGCTCTCC)	0.452
CTACGGTCTTGGGTTCTAACCTGTTGCAC (site CTACGATCTGT)	0.256
CTACGGTCTTGGGTTCTAACCTGTTGCAC (site CTACGCTCTGT)	0.238
CTACGGTCTTGGGTTCTAACCTGTTGCAC (site CTACGGTCTGT)	0.404
CTACGGTCTTGGGTTCTAACCTGTTGCAC (site CTACGTTCTGT)	0.0783
CTACGTCCTTGGGTTCTAACCTGTTGCTC (site CTACGTCCTAA)	0.191
CTACGTCCTTGGGTTCTAACCTGTTGCTC (site CTACGTCCTCA)	0.942
CTACGTCCTTGGGTTCTAACCTGTTGCTC (site CTACGTCCTGA)	0.91
CTACGTCCTTGGGTTCTAACCTGTTGCTC (site CTACGTCCTTA)	0.0289
CTACGTTCTTGGGTTCTAACCTGTTGCAC (site CTACGATCTGT)	0.0857
CTACGTTCTTGGGTTCTAACCTGTTGCAC (site CTACGCTCTGT)	0
CTACGTTCTTGGGTTCTAACCTGTTGCAC (site CTACGGTCTGT)	0.0816
CTACGTTCTTGGGTTCTAACCTGTTGCAC (site CTACGTTCTGT)	1.1

Sequence	recombinant barcode read abundance (log10)
CTACTAGCTTGGGTTCTAACCTGTTGCAG (site CTACTAGCTAT)	0.173
CTACTAGCTTGGGTTCTAACCTGTTGCAG (site CTACTAGCTCT)	2.5
CTACTAGCTTGGGTTCTAACCTGTTGCAG (site CTACTAGCTGT)	0.0122
CTACTAGCTTGGGTTCTAACCTGTTGCAG (site CTACTAGCTTT)	0.0541
CTACTAGCTTGGGTTCTAACCTGTTGCAT (site CTACTAGCTAT)	1.18
CTACTAGCTTGGGTTCTAACCTGTTGCAT (site CTACTAGCTCT)	0.115
CTACTAGCTTGGGTTCTAACCTGTTGCAT (site CTACTAGCTGT)	0.167
CTACTAGCTTGGGTTCTAACCTGTTGCAT (site CTACTAGCTTT)	0.139
CTAGAAGCTTGGGTTCTAACCTGTTGCGT (site CTAGAAGCTAC)	2.52
CTAGAAGCTTGGGTTCTAACCTGTTGCGT (site CTAGGAGCTAC)	1.05
CTAGACTCTTGGGTTCTAACCTGTTGCAA (site CTAGACTCTAT)	0.644
CTAGACTCTTGGGTTCTAACCTGTTGCAA (site CTAGACTCTCT)	0.287
CTAGACTCTTGGGTTCTAACCTGTTGCAA (site CTAGACTCTGT)	0.0566
CTAGACTCTTGGGTTCTAACCTGTTGCAA (site CTAGACTCTTT)	2
CTAGACTCTTGGGTTCTAACCTGTTGCTC (site CTAGACTCTAA)	0.0434
CTAGACTCTTGGGTTCTAACCTGTTGCTC (site CTAGACTCTCA)	0.0281
CTAGACTCTTGGGTTCTAACCTGTTGCTC (site CTAGACTCTGA)	2.84
CTAGACTCTTGGGTTCTAACCTGTTGCTC (site CTAGACTCTTA)	0.275
CTAGACTCTTGGGTTCTAACCTGTTGCTT (site CTAGACTCTAA)	2.89
CTAGACTCTTGGGTTCTAACCTGTTGCTT (site CTAGACTCTCA)	0.304
CTAGACTCTTGGGTTCTAACCTGTTGCTT (site CTAGACTCTGA)	0.0758
CTAGACTCTTGGGTTCTAACCTGTTGCTT (site CTAGACTCTTA)	0.261

Sequence	recombinant barcode read abundance (log10)
CTAGATGCTTGGGTTCTAACCTGTTGCGA (site AGTTCATCTAT)	0.0418
CTAGATGCTTGGGTTCTAACCTGTTGCGA (site CTAGATGCTTC)	1.94
CTAGATTCTTGGGTTCTAACCTGTTGCAT (site ACGATAACTTG)	0.0921
CTAGATTCTTGGGTTCTAACCTGTTGCAT (site CTAGATTCTAT)	2.61
CTAGCAACTTGGGTTCTAACCTGTTGCTT (site CTAGCAACTAA)	0.26
CTAGCAACTTGGGTTCTAACCTGTTGCTT (site CTAGCAGCTAT)	0.124
CTAGCAGCTTGGGTTCTAACCTGTTGCAT (site CTAGCAACTAA)	0.197
CTAGCAGCTTGGGTTCTAACCTGTTGCAT (site CTAGCAGCTAT)	0.434
CTAGCCACTTGGGTTCTAACCTGTTGCTA (site CTAGCCACTTA)	1.01
CTAGCCACTTGGGTTCTAACCTGTTGCTA (site CTAGCGACTCA)	0.38
CTAGGAACTTGGGTTCTAACCTGTTGCTA (site AGGTTCCCTCC)	0.454
CTAGGAACTTGGGTTCTAACCTGTTGCTA (site CTAGGAACTTA)	0.635
CTAGGAGCTTGGGTTCTAACCTGTTGCTC (site CTAGGAGCTAA)	0.241
CTAGGAGCTTGGGTTCTAACCTGTTGCTC (site CTAGGAGCTCA)	0.222
CTAGGAGCTTGGGTTCTAACCTGTTGCTC (site CTAGGAGCTGA)	0.885
CTAGGAGCTTGGGTTCTAACCTGTTGCTC (site CTAGGAGCTTA)	0.126
CTAGTGACTTGGGTTCTAACCTGTTGCGA (site CTAGTGACTAC)	0.0588
CTAGTGACTTGGGTTCTAACCTGTTGCGA (site CTAGTGACTCC)	0.576
CTAGTGACTTGGGTTCTAACCTGTTGCGA (site CTAGTGACTGC)	0.0599
CTAGTGACTTGGGTTCTAACCTGTTGCGA (site CTAGTGACTTC)	1.99
